≈ marks a conversion by molar mass, not a printed value.
Columns and labels:
[1] = tested on: six vancomycin-susceptible strains of staphylococci and enterococci; assay: Effect of human serum on the MIC, serial dilution assay; format: cell-based
Text: Another important property of the formula I compounds is the low binding of the compounds to serum proteins when compared with other glycopeptide antibiotics. […] The ratio of the MIC measured in the presence of added serum to the MIC measured in the absence of added serum ("ratio") is an indication of the degree of serum binding. […] A ratio that is greater than one, for example about ten, indicates the compound has a high degree of serum binding.

[2] = tested on: vancomycin-resistant (Vanco^r) E. faecium and E. faecalis; assay: Susceptibility of vancomycin-resistant enterococci, agar-dilution MIC; format: cell-based; conditions: for Geometric Mean MIC, Vanco^r Strains: n = 25 strains, end points read after 24-hour incubation
Procedure: (§1) End points were read after 24-hour incubation. The ratio was calculated by dividing the mean MIC of the compound against the vancomycin-resistant strains by the mean MIC of the compound against the vancomycin-susceptible strains.

[3] = tested on: vancomycin-susceptible (Vanco^s) E. faecium and E. faecalis; assay: Susceptibility of vancomycin-susceptible enterococci, agar-dilution MIC; format: cell-based; conditions: n = 34 strains; end points read after 24-hour incubation
Procedure: as §1

[4] = tested on: Enterococcus faecalis 2041; assay: MIC, standard agar-dilution assay; format: cell-based
Procedure: (§2) The formula I compounds have in vitro and in vivo activity against Gram-positive pathogenic bacteria. The MIC's were determined using a standard agar-dilution assays.
^c Formerly Streptococcus faecalis 2041

Streptococcus pyogenes = assay: In vivo activity, experimentally infected mice (ED50); conditions: Streptococcus pyogenes infection; doses administered subcutaneously to mice 1 and 4 hours postinfection
Enterococcus faecium X66 = assay: MIC, standard agar-dilution assay; format: cell-based
Procedure: as §2
^b Formerly Streptococcus faecium X66

Staphylococcus aureus = assay: In vivo activity, experimentally infected mice (ED50); conditions: Staphylococcus aureus infection; doses administered subcutaneously to mice 1 and 4 hours postinfection
[5] = tested on: Staphylococcus aureus S13E; format: cell-based
Procedure: as §2

[6] = tested on: Streptococcus pneumoniae Park 1; format: cell-based
Procedure: as §2

[7] = tested on: Haemophilus influenzae 76; assay: MIC, standard agar-dilution assay; format: cell-based
Procedure: as §2

[8] = tested on: Streptococcus pyogenes C203; assay: MIC, standard agar-dilution assay; format: cell-based
Procedure: as §2

Escherichia coli N10 = assay: MIC, standard agar-dilution assay; format: cell-based
Procedure: as §2

[9] = tested on: Staphylococcus aureus V41; assay: MIC, standard agar-dilution assay; format: cell-based
Procedure: as §2

[10] = tested on: Klebsiella pneumoniae X26; assay: MIC, standard agar-dilution assay; format: cell-based
Procedure: as §2

[11] = tested on: Staphylococcus epidermidis EPI270; assay: MIC, standard agar-dilution assay; format: cell-based
Procedure: as §2

[12] = tested on: Haemophilus influenzae C.L.; assay: MIC, standard agar-dilution assay; format: cell-based
Procedure: as §2

[13] = tested on: Klebsiella pneumoniae X68; assay: MIC, standard agar-dilution assay; format: cell-based
Procedure: as §2

[14] = tested on: Staphylococcus epidermidis 222; assay: MIC, standard agar-dilution assay; format: cell-based
Procedure: as §2

[15] = tested on: Klebsiella pneumoniae KAE; assay: MIC, standard agar-dilution assay; format: cell-based
Procedure: as §2

[16] = tested on: Staphylococcus aureus NRRL X1.1; assay: MIC, standard agar-dilution assay; format: cell-based
Procedure: as §2

Escherichia coli TEM = assay: MIC, standard agar-dilution assay; format: cell-based
Procedure: as §2

[17] = tested on: Staphylococcus aureus X400; assay: MIC, standard agar-dilution assay; format: cell-based
Procedure: as §2

Escherichia coli EC14 = assay: MIC, standard agar-dilution assay; format: cell-based
Procedure: as §2

Streptococcus pneumoniae = assay: In vivo activity, experimentally infected mice (ED50); conditions: Streptococcus pneumoniae infection; doses administered subcutaneously to mice 1 and 4 hours postinfection

Compound	Ratio (mean MIC vancomycin-resistant strains / mean MIC vancomycin-susceptible strains) [2]	Geometric Mean MIC, Vanco^r Strains [2]	Geometric Mean MIC, Vanco^s Strains [3]	MIC [4]	ED50 (Streptococcus pyogenes)	MIC (Enterococcus faecium X66)	ED50 (Staphylococcus aureus)	MIC [5]	MIC [6]	MIC [7]	MIC [8]	MIC (Escherichia coli N10)	MIC [9]	MIC [10]	MIC [11]	MIC [12]	MIC [13]	MIC [14]	MIC [15]	MIC [16]	also measured
CN[C@H](CC(C)C)C(=O)N[C@H]1C(=O)N[C@@H](CC(N)=O)C(=O)N[C@H]2C(=O)N[C@H]3C(=O)N[C@H](C(=O)N[C@H](C(=O)O)c4cc(O)cc(O)c4-c4cc3ccc4O)[C@H](O[C@H]3C[C@](C)(N)[C@@H](O)[C@H](C)O3)c3ccc(c(Cl)c3)Oc3cc2cc(c3O[C@@H]2O[C@H](CO)[C@@H](O)[C@H](O)[C@H]2O[C@H]2C[C@](C)(N)[C@@H](O)[C@H](C)O2)Oc2ccc(cc2Cl)[C@H]1O [Compound A82846B, A82846B, reference compound]	18.4	9.4 µg/mL	0.51 µg/mL																		ratio of the MIC in the presence of added serum to the MIC in the absence of added serum [1]: 1.5; MIC determined in absence of added serum ([1]; absence (-) of human serum): 0.5; MIC determined in presence of human serum ([1]; presence (+) of human serum, broth supplemented with human serum to 40%): 0.75
CN[C@H](CC(C)C)C(=O)N[C@H]1C(=O)N[C@@H](CC(N)=O)C(=O)N[C@H]2C(=O)N[C@H]3C(=O)N[C@H](C(=O)N[C@H](C(=O)O)c4cc(O)cc(O)c4-c4cc3ccc4O)[C@H](O[C@H]3C[C@](C)(N)[C@@H](O)[C@H](C)O3)c3ccc(c(Cl)c3)Oc3cc2cc(c3O[C@@H]2O[C@H](CO)[C@@H](O)[C@H](O)[C@H]2O[C@H]2C[C@](C)(NCCc3ccccc3)[C@@H](O)[C@H](C)O2)Oc2ccc(cc2Cl)[C@H]1O [Compound 43]	5.2	4.0 µg/mL	0.77 µg/mL	.5 µg/mL (≈ 0.295 µM)	0.38 mg/kg/2	1 µg/mL (≈ 0.589 µM)	0.125 mg/kg/2	1 µg/mL (≈ 0.589 µM)	.125 µg/mL (≈ 0.0737 µM)	> 128 µg/mL	.5 µg/mL (≈ 0.295 µM)	> 128 µg/mL	.5 µg/mL (≈ 0.295 µM)	> 128 µg/mL	1 µg/mL (≈ 0.589 µM)	> 128 µg/mL	> 128 µg/mL	.25 µg/mL (≈ 0.147 µM)	> 128 µg/mL	.25 µg/mL (≈ 0.147 µM)	MIC (Escherichia coli TEM): > 128 µg/mL; MIC [17]: 1 µg/mL (≈ 0.589 µM); MIC (Escherichia coli EC14): > 128 µg/mL; ED50 (Streptococcus pneumoniae): 0.11 mg/kg/2
CCN(CC)c1ccc(CNC2(C)CC(OC3C(Oc4c5cc6cc4Oc4ccc(cc4Cl)C(OC4CC(C)(N)C(O)C(C)O4)C4NC(=O)C(NC(=O)C6NC(=O)C(CC(N)=O)NC(=O)C(NC(=O)C(CC(C)C)NC)C(O)c6ccc(c(Cl)c6)O5)c5ccc(O)c(c5)-c5c(O)cc(O)cc5C(C(=O)O)NC4=O)OC(CO)C(O)C3O)OC(C)C2O)cc1 (stereo not drawn) [Compound 56]	7.0	5.1 µg/mL	0.73 µg/mL	.5 µg/mL (≈ 0.285 µM)	.06 mg/kg/2	1 µg/mL (≈ 0.57 µM)	0.65 mg/kg/2	1 µg/mL (≈ 0.57 µM)	.5 µg/mL (≈ 0.285 µM)	> 128 µg/mL	.5 µg/mL (≈ 0.285 µM)	> 128 µg/mL	.5 µg/mL (≈ 0.285 µM)	> 128 µg/mL	2 µg/mL (≈ 1.14 µM)	> 128 µg/mL	> 128 µg/mL	.5 µg/mL (≈ 0.285 µM)	> 128 µg/mL	.5 µg/mL (≈ 0.285 µM)	MIC (Escherichia coli TEM): > 128 µg/mL; MIC [17]: 1 µg/mL (≈ 0.57 µM); MIC (Escherichia coli EC14): > 128 µg/mL; ED50 (Streptococcus pneumoniae): .09 mg/kg/2
